Source: US9932637B2, “Genetic polymorphisms associated with cardiovascular disorders and drug response, methods of detection and uses thereof” (CELERA CORPORATION, priority 2003, dated 2018)

Test system: patients with prior myocardial infarction (CARE study)
Assay: CARE: association of SNPs with pravastatin treatment in cardiovascular events prevention (logistic regression, odds ratio pravastatin vs placebo by genotype; Table 8)
Format: in vivo, human
Conditions: for Prava vs. Placebo Odds Ratio, 0 Rare Alleles / Prava vs. Placebo Odds Ratio, 1 Rare Alleles / Prava vs. Placebo Odds Ratio, 2 Rare Alleles: SELP hCV11975296; for Prava vs. Placebo Odds Ratio, 0 Rare Alleles / Prava vs. Placebo Odds Ratio, 1 Rare Alleles / Prava vs. Placebo Odds Ratio, 2 Rare Alleles / Odds ratio pravastatin vs placebo: All Patients; for Any Report of Stroke During CARE, n/total (%) / Fatal/Non-fatal Cerebrovascular Disease, n/total (%): SERPINA1 hCV1260328, All Patients; for Coronary Artery Bypass Graft, n/total (%): SERPINA1 hCV25640505, All Patients; for Fatal/Nonfatal Atherosclerotic CV Disease, n/total (%): SERPINB6 hCV16190893, All Patients; for Fatal CHD/Definite Non-fatal MI, n/total (%): TAP1 hCV549926, All Patients
Description: In order to identify genetic markers associated with acute coronary events (e.g. MI, stroke, unstable angina, congestive heart failure, etc.) or response to statin treatment for the prevention of coronary events, samples from the Cholesterol and Recurrent Events (CARE) study (a randomized multicentral double-blinded trial on secondary prevention of acute coronary events with pravastatin) (Sacks et al., 1991, Am. J. Cardiol. 68: 1436-1446) were genotyped. A well-documented myocardial infarction (MI) was one of the enrollment criteria for entry into the CARE study. Patients were enrolled in the CARE trial from 80 participating study centers. […] Patients were randomized to receive either 40 mg of pravastatin once daily or a matching placebo. The primary endpoint of the trial was death from coronary heart disease and the median duration of follow-up was 5.0 years (range, 4.0 to 6.2 years). […] Secondary endpoints of other related cardiovascular or metabolic disease events, and changes in clinical variables were also recorded in pravastatin-treated and placebo groups. All individuals included in the study had signed a written informed consent form and the study protocol was approved by the respective Institutional Review Boards (IRBs).
For genotyping SNPs in CARE patient samples, DNA was extracted from blood samples using conventional DNA extraction methods such as the QIA-amp kit from Qiagen. Genotypes were obtained on an ABI PRISM® 7900HT Sequence Detection PCR system (Applied Biosystems, Foster City, Calif.) by kinetic allele-specific PCR, similar to the method described by Germer et al. (Germer S., Holland M. J., Higuchi R. 2000, Genome Res. 10: 258-266).
Statistical analysis for association of SNPs with pravastatin treatment in cardiovascular events prevention (Table 8) was carried out using an overall logistic regression model that included an intercept, a parameter for the effect of a genotype containing two rare alleles versus a genotype containing no rare alleles, a parameter for the effect of a genotype containing one rare allele versus a genotype containing no rare alleles, a parameter for the effect of use of pravastatin versus the use of placebo, and parameters for the interaction effects between SNP genotypes and pravastatin use. The test of the overall model is a chi-square test with two degrees of freedom for analyses containing all three genotypes, and one degree of freedom for analyses containing two genotypes.
Effect sizes were estimated through odds ratios (pravastatin group versus placebo) for carriers of each genotype (groups of 0, 1, and 2 minor allele carriers). The effect was considered to be significant if p-value for testing whether any of the interactions between SNP genotypes and pravastatin use were <0.05. […] Odds ratios less than one indicate that the specific SNP allele has a protective effect and odds ratios greater than one indicate that the specific SNP allele has an adverse effect.

[1] = SELP hCV11975296, All Patients, 2 Rare Alleles, Prava arm
[2] = Coronary Artery Bypass or Revascularization
[3] = Hosp. for Cardiovascular Disease
[4] = SN hCV25623265, All Patients, 0 Rare Alleles, Prava arm
[5] = SN hCV25623265, All Patients, 1 Rare Allele, Prava arm
[6] = SN hCV25623265, All Patients, 2 Rare Alleles, Prava arm
[7] = TGFB1 hCV8708473, All Patients, 0 Rare Alleles, Prava arm

Compound: CC[C@H](C)C(=O)O[C@H]1C[C@H](O)C=C2C=C[C@H](C)[C@H](CC[C@@H](O)C[C@@H](O)CC(=O)O)[C@H]21 [pravastatin]
- Coronary Artery Bypass or Revascularization, n/total (%) [1]: (20.3%)
- Hosp. for Cardiovascular Disease, n/total (%) [1]: (49.2%)
- Hosp. for Unstable Angina, n/total (%) [1]: (27.1%)
- Prava vs. Placebo Odds Ratio, 0 Rare Alleles [2]: 0.68
- Prava vs. Placebo Odds Ratio, 1 Rare Alleles [2]: 0.63
- Prava vs. Placebo Odds Ratio, 2 Rare Alleles [2]: 5.74
- Prava vs. Placebo Odds Ratio, 0 Rare Alleles [3]: 0.81
- Prava vs. Placebo Odds Ratio, 1 Rare Alleles [3]: 0.62
- Prava vs. Placebo Odds Ratio, 2 Rare Alleles [3]: 1.71
- Prava vs. Placebo Odds Ratio, 0 Rare Alleles (Hosp. for Unstable Angina): 0.82
- Prava vs. Placebo Odds Ratio, 1 Rare Alleles (Hosp. for Unstable Angina): 0.69
- Prava vs. Placebo Odds Ratio, 2 Rare Alleles (Hosp. for Unstable Angina): 5.45
- Any Report of Stroke During CARE, n/total (%) (0 Rare Alleles, Prava arm): (2.9%)
- Fatal/Non-fatal Cerebrovascular Disease, n/total (%) (0 Rare Alleles, Prava arm): (5.9%)
- Any Report of Stroke During CARE, n/total (%) (1 Rare Allele, Prava arm): (1.2%)
- Fatal/Non-fatal Cerebrovascular Disease, n/total (%) (1 Rare Allele, Prava arm): (2.8%)
- Any Report of Stroke During CARE, n/total (%) (2 Rare Alleles, Prava arm): (1.4%)
- Fatal/Non-fatal Cerebrovascular Disease, n/total (%) (2 Rare Alleles, Prava arm): (2.7%)
- Odds ratio pravastatin vs placebo (SERPINA1 hCV1260328, Any Report of Stroke During CARE, 0 rare alleles): 0.87
- Odds ratio pravastatin vs placebo (SERPINA1 hCV1260328, Any Report of Stroke During CARE, 1 rare allele): 0.23
- Odds ratio pravastatin vs placebo (SERPINA1 hCV1260328, Any Report of Stroke During CARE, 2 rare alleles): 0.21
- Odds ratio pravastatin vs placebo (SERPINA1 hCV1260328, Fatal/Non-fatal Cerebrovascular Disease, 0 rare alleles): 1.03
- Odds ratio pravastatin vs placebo (SERPINA1 hCV1260328, Fatal/Non-fatal Cerebrovascular Disease, 1 rare allele): 0.36
- Odds ratio pravastatin vs placebo (SERPINA1 hCV1260328, Fatal/Non-fatal Cerebrovascular Disease, 2 rare alleles): 0.17
- Coronary Artery Bypass Graft, n/total (%) (0 Rare Alleles, Prava arm): (6.1%)
- Coronary Artery Bypass Graft, n/total (%) (1 Rare Allele, Prava arm): (9.0%)
- Coronary Artery Bypass Graft, n/total (%) (2 Rare Alleles, Prava arm): (7.4%)
- Fatal/Nonfatal Atherosclerotic CV Disease, n/total (%) (0 Rare Alleles, Prava arm): (34.9%)
- Fatal/Nonfatal Atherosclerotic CV Disease, n/total (%) (1 Rare Allele, Prava arm): (32.4%)
- Fatal/Nonfatal Atherosclerotic CV Disease, n/total (%) (2 Rare Alleles, Prava arm): (29.7%)
- Coronary Artery Bypass or Revascularization, n/total (%) [4]: (13.0%)
- Definite Nonfatal MI, n/total (%) [4]: (8.2%)
- Fatal CHD/Definite Nonfatal MI, n/total (%) [4]: (9.7%)
- Percutaneous Transluminal Coronary Angioplas, n/total (%) [4]: (7.5%)
- Total Coronary Heart Disease Events, n/total (%) [4]: (27.2%)
- Coronary Artery Bypass or Revascularization, n/total (%) [5]: (14.9%)
- Definite Nonfatal MI, n/total (%) [5]: (7.6%)
- Fatal CHD/Definite Nonfatal MI, n/total (%) [5]: (10.8%)
- Percutaneous Transluminal Coronary Angioplas, n/total (%) [5]: (9.5%)
- Total Coronary Heart Disease Events, n/total (%) [5]: (30.5%)
- Coronary Artery Bypass or Revascularization, n/total (%) [6]: (15.0%)
- Definite Nonfatal MI, n/total (%) [6]: (2.8%)
- Fatal CHD/Definite Nonfatal MI, n/total (%) [6]: (4.6%)
- Percutaneous Transluminal Coronary Angioplas, n/total (%) [6]: (9.8%)
- Total Coronary Heart Disease Events, n/total (%) [6]: (28.2%)
- Fatal CHD/Definite Non-fatal MI, n/total (%) (0 Rare Alleles, Prava arm): (10.0%)
- Fatal CHD/Definite Non-fatal MI, n/total (%) (1 Rare Allele, Prava arm): (8.2%)
- Fatal CHD/Definite Non-fatal MI, n/total (%) (2 Rare Alleles, Prava arm): (4.1%)
- Odds ratio pravastatin vs placebo (TAP1 hCV549926, Fatal CHD/Definite Non-fatal MI, 0 rare alleles): 0.85
- Odds ratio pravastatin vs placebo (TAP1 hCV549926, Fatal CHD/Definite Non-fatal MI, 1 rare allele): 0.54
- Odds ratio pravastatin vs placebo (TAP1 hCV549926, Fatal CHD/Definite Non-fatal MI, 2 rare alleles): 0.16
- Any Report of Stroke Prior to or During CARE, n/total (%) [7]: (7.5%)
- Cardiovascular Mortality, n/total (%) [7]: (5.5%)
- Fatal Atherosclerotic Cardiovascular Disease, n/total (%) [7]: (5.4%)
- Fatal Coronary Heart Disease, n/total (%) [7]: (5.1%)
- Fatal/Non-fatal Atherosclerotic CV Disease, n/total (%) [7]: (37.2%)
- Total Coronary Heart Disease Events, n/total (%) [7]: (32.1%)
- Total Mortality, n/total (%) [7]: (7.2%)
